Experimental data reported in ChEMBL document CHEMBL3885861, “Open TG-GATES”.

Species: Rattus norvegicus
Assay: Open TG-GATES - Regimen: Single
Type: toxicity, organism-based, Sprague-Dawley
Design: regimen Single, gender Male, age 6 weeks
Conditions: in vivo, po, 30 mg/kg, route gavage, dose level Low; for APTT / Bas / Eos / Fbg / Hb / Ht / Lym / MCH / MCHC / MCV / Mono / Neu / PT / Plat / RBC / Ret / WBC: tissue Blood; for KIDNEY_L / KIDNEY_R / KIDNEY_TOTAL: tissue Kidney; for LIVER: tissue Liver; for A/G / ALP / ALT / AST / BUN / CRE / Ca / Cl / DBIL / GLC / IP / K / LDH / Na / PL / RALB / TBIL / TC / TG / TP / gamma-GTP: tissue Plasma

SMILES: Brc1ccccc1 [BROMOBENZENE]
- TERMINAL_BW (3 h): 190.8 g
- APTT (3 h): 14.7 s
- Bas (3 h): 0%
- Eos (3 h): 0.8%
- Fbg (3 h): 276.2 mg/dL
- Hb (3 h): 12.9 g/dL
- Ht (3 h): 38.6%
- Lym (3 h): 77%
- MCH (3 h): 21.7 pg
- MCHC (3 h): 33.6%
- MCV (3 h): 64.5 fL
- Mono (3 h): 3%
- Neu (3 h): 18.4%
- PT (3 h): 12.3 s
- Plat (3 h): 116 x10_4/uL
- RBC (3 h): 597.6 x10_4/ul
- Ret (3 h): 9.5%
- WBC (3 h): 95.3 x10_2/uL
- KIDNEY_L (3 h): 0.8 g
- KIDNEY_R (3 h): 0.8 g
- KIDNEY_TOTAL (3 h): 1.6 g
- LIVER (3 h): 7.9 g
- A/G (3 h): 0.9
- ALP (3 h): 1807.2 IU/L
- ALT (3 h): 47.6 IU/L
- AST (3 h): 80 IU/L
- BUN (3 h): 11 mg/dL
- CRE (3 h): 0.2 mg/dL
- Ca (3 h): 11.4 mg/dL
- Cl (3 h): 106.2 meq/L
- DBIL (3 h): 0.024 mg/dL
- GLC (3 h): 182 mg/dL
- IP (3 h): 9.4 mg/dL
- K (3 h): 4 meq/L
- LDH (3 h): 75.6 IU/L
- Na (3 h): 141.6 meq/L
- PL (3 h): 174.2 mg/dL
- RALB (3 h): 2.6 g/dL
- TBIL (3 h): 0.056 mg/dL
- TC (3 h): 93.6 mg/dL
- TG (3 h): 80.6 mg/dL
- TP (3 h): 5.7 g/dL
- gamma-GTP (3 h): 1.2 IU/L
- TERMINAL_BW (6 h): 192.5 g
- APTT (6 h): 15.9 s
- Bas (6 h): 0%
- Eos (6 h): 1%
- Fbg (6 h): 250 mg/dL
- Hb (6 h): 12.8 g/dL
- Ht (6 h): 38.3%
- Lym (6 h): 78.6%
- MCH (6 h): 21.7 pg
- MCHC (6 h): 33.3%
- MCV (6 h): 65 fL
- Mono (6 h): 3.4%
- Neu (6 h): 16.6%
- PT (6 h): 12.6 s
- Plat (6 h): 110.6 x10_4/uL
- RBC (6 h): 590.4 x10_4/ul
- Ret (6 h): 9.4%
- WBC (6 h): 105.9 x10_2/uL
- KIDNEY_L (6 h): 0.8 g
- KIDNEY_R (6 h): 0.8 g
- KIDNEY_TOTAL (6 h): 1.6 g
- LIVER (6 h): 7.4 g
- A/G (6 h): 0.9
- ALP (6 h): 1769.6 IU/L
- ALT (6 h): 41 IU/L
- AST (6 h): 75.8 IU/L
- BUN (6 h): 10.6 mg/dL
- CRE (6 h): 0.2 mg/dL
- Ca (6 h): 11.1 mg/dL
- Cl (6 h): 107.2 meq/L
- DBIL (6 h): 0.018 mg/dL
- GLC (6 h): 180.8 mg/dL
- IP (6 h): 10.3 mg/dL
- K (6 h): 3.9 meq/L
- LDH (6 h): 71.2 IU/L
- Na (6 h): 141.8 meq/L
- PL (6 h): 139.2 mg/dL
- RALB (6 h): 2.5 g/dL
- TBIL (6 h): 0.058 mg/dL
- TC (6 h): 74.6 mg/dL
- TG (6 h): 53 mg/dL
- TP (6 h): 5.3 g/dL
- gamma-GTP (6 h): 1.4 IU/L
- TERMINAL_BW (9 h): 193.2 g
- APTT (9 h): 15.6 s
- Bas (9 h): 0%
- Eos (9 h): 1%
- Fbg (9 h): 262.2 mg/dL
- Hb (9 h): 13.3 g/dL
- Ht (9 h): 39.4%
- Lym (9 h): 70.8%
- MCH (9 h): 21.5 pg
- MCHC (9 h): 33.7%
- MCV (9 h): 64 fL
- Mono (9 h): 3.2%
- Neu (9 h): 24.6%
- PT (9 h): 12.7 s
- Plat (9 h): 118.3 x10_4/uL
- RBC (9 h): 617.2 x10_4/ul
- Ret (9 h): 9%
- WBC (9 h): 92.1 x10_2/uL
- KIDNEY_L (9 h): 0.8 g
- KIDNEY_R (9 h): 0.8 g
- KIDNEY_TOTAL (9 h): 1.6 g
- LIVER (9 h): 7 g
- A/G (9 h): 0.9
- ALP (9 h): 1907.6 IU/L
- ALT (9 h): 41.2 IU/L
- AST (9 h): 73.4 IU/L
- BUN (9 h): 10.2 mg/dL
- CRE (9 h): 0.1 mg/dL
- Ca (9 h): 10.7 mg/dL
- Cl (9 h): 106.2 meq/L
- DBIL (9 h): 0.016 mg/dL
- GLC (9 h): 189.6 mg/dL
- IP (9 h): 11.5 mg/dL
- K (9 h): 3.9 meq/L
- LDH (9 h): 72.8 IU/L
- Na (9 h): 142.2 meq/L
- PL (9 h): 136.8 mg/dL
- RALB (9 h): 2.5 g/dL
- TBIL (9 h): 0.058 mg/dL
- TC (9 h): 79.6 mg/dL
- TG (9 h): 41.6 mg/dL
- TP (9 h): 5.3 g/dL
- gamma-GTP (9 h): 1.6 IU/L
- TERMINAL_BW (24 h): 199 g
- APTT (24 h): 15.2 s
- Bas (24 h): 0%
- Eos (24 h): 1.2%
- Fbg (24 h): 248.6 mg/dL
- Hb (24 h): 12.7 g/dL
- Ht (24 h): 37.2%
- Lym (24 h): 71.6%
- MCH (24 h): 21.4 pg
- MCHC (24 h): 34%
- MCV (24 h): 63.1 fL
- Mono (24 h): 3.4%
- Neu (24 h): 23.6%
- PT (24 h): 12.3 s
- Plat (24 h): 117.9 x10_4/uL
- RBC (24 h): 589.2 x10_4/ul
- Ret (24 h): 8.2%
- WBC (24 h): 96.4 x10_2/uL
- KIDNEY_L (24 h): 0.8 g
- KIDNEY_R (24 h): 0.8 g
- KIDNEY_TOTAL (24 h): 1.7 g
- LIVER (24 h): 9.2 g
- A/G (24 h): 0.9
- ALP (24 h): 1811.4 IU/L
- ALT (24 h): 52.8 IU/L
- AST (24 h): 78.8 IU/L
- BUN (24 h): 15.4 mg/dL
- CRE (24 h): 0.2 mg/dL
- Ca (24 h): 10.4 mg/dL
- Cl (24 h): 106.2 meq/L
- DBIL (24 h): 0.012 mg/dL
- GLC (24 h): 196.8 mg/dL
- IP (24 h): 8.1 mg/dL
- K (24 h): 4.2 meq/L
- LDH (24 h): 112.6 IU/L
- Na (24 h): 141.6 meq/L
- PL (24 h): 137.4 mg/dL
- RALB (24 h): 2.5 g/dL
- TBIL (24 h): 0.05 mg/dL
- TC (24 h): 71.8 mg/dL
- TG (24 h): 79.4 mg/dL
- TP (24 h): 5.4 g/dL
- gamma-GTP (24 h): 0.8 IU/L
